The target of experiment [1] is T1, hDAT (Homo sapiens, UniProt Q01959).
T1 construct: expressed in transfected cells; host or cells: SupT1 human T-cell line, retrovirally transduced with SFG.hDAT.I.CD34 (co-transduced with FLuc for in vivo work)
Briefly: In vitro radiosubstrate binding assay, hDAT expressing T-cells. The method, then: (§1) Reporter protein binding capabilities was assessed in a method previously described. Briefly, 1×10^6 all hDAT expressing T-cells and the non-transduced control cells were incubated at 37° C. with 7.4 kBq ^123I-FP-CIT (GE, Healthcare) for 30 mins. At each time point, cells were rapidly washed twice with 500 μL ice-cold PBS and the supernatant collected. Cell pellets were re-suspended in 1 mL PBS. ^123I-FP-CIT binding in cells and medium was measured using a gamma counter (WIZARD^2, PerkinElmer, UK). To determine the non-specific binding of the ^123I-FP-CIT in hDAT (+) cells, transduced cells and non-transduced cells were incubated with 50 μM of β-CIT-FP (ABX) for 5 min. ^123I-FP-CIT cells were subsequently prepared for gamma counting as mentioned above. All experiments were performed in triplicates and repeated ≥twice. All results are given as mean±standard deviation of the mean (SD). The data was analysed using one way analysis of variance (ANOVA) followed by the Tukey's HSD test with the IBM SPSS software.

Experiment [2] concerns non-transduced SupT1 cells. Briefly: SPECT imaging of control animals injected with non-transduced SupT1 cells. It is filed as in vivo, mouse. To be noted: intracranially injected non-transduced SupT1 cells. The method, then:
(§2) Animals were administered with 1.5 mmol/kg of the thyroid blocking agent potassium perchlorate (Sigma Aldrich, USA) intraperitoneally one hour prior to imaging. Animals were imaged with a NanoSPECT/CT small animal in vivo scanner (Mediso, Hungary) consisting of a rotating double headed camera (company, country). 1.2 mm pinhole mouse apertures were used. Imaging was performed under isoflurane (1.5-2%) and the body temperature was maintained at 37° C. using a heated animal bed (Minerve, France). For the kinetic study, animals were administered with an average of 17.25±1.22 MBq of ^123I-FP-CIT i.v. and 15 min. brain scans were acquired day 25 post tumour inoculation at 15 min. 2 h, 4 h, 6 h and 8 h. Images were reconstructed using HiSPECT software (InviCRO, USA) and image processing analysis was performed (VivoQuant Software; InviCRO, USA).

Experiment [3] concerns the target T2, DAT (Mus musculus, UniProt Q61327).
T2 construct: the striatum (region with high endogenous expression of DAT); from tissue; host or cells: striatum of living NSG mice (in vivo SPECT)
Briefly: SPECT/CT imaging of striatum (endogenous DAT) in NSG mice. It is filed as in vivo. Particulars: NSG mice n=4. As for the experimental part:
as §2
Time activity profiles were generated evaluate the hDAT reporter system in vivo. […] The percentage in injected dose per mm^3 (% ID/mm^3) was calculated by; injected dose (MBq)/counts in the whole body (MBq)/volume of the ROI (mm^3) to determine the peak uptake time and the optimum imaging window. […] The binding ratios were calculated by determining the mean counts per pixel in the specific region (hDAT expressing xenograft for the hDAT: cerebellum and hDAT: striatum ratios) divided by the mean counts per pixel in the nonspecific region.

In experiment [4] the test system is control non-transduced (NT) SupT1 cells. Briefly: In vitro radiosubstrate binding assay, non-transduced control cells. Particulars: 7.4 kBq, 37° C., 30 min. Also on record: species or system human. The method, then: as §1
In experiment [5] the target is T1, hDAT. Briefly: SPECT/CT imaging of hDAT-positive brain xenografts in NSG mice. Particulars: for specific to non-specific binding ratio hDAT: cerebellum: NSG mice n=4. In kind it is in vivo. As for the experimental part:
All animal procedures were carried out in accordance with the UK Animals (Scientific Procedures) 1986 Act and institutional ethics regulation. NSG mice were bred in-house and kept according to institutional guidelines. Male mice 6-10 weeks old were injected with 2 mg/kg body weight of 5% carprofen (Norbrook) and anaesthetised with 3-5% Isoflurane (ABBOTT, UK) in an induction chamber. Animals were placed in a stereotactic frame (David Kopf Instruments) with an anaesthesia head holder to deliver 3% isoflurane. A sagittal incision over the parieto-occipital bone using a sterile scalpel (Swann Morton Ltd) was made and a blunt ended Hamilton (75N, 26s/2″/2′5 ul) syringe with SupT1/hDAT.I.CD34 was placed 1.5 mm lateral and 1 mm anterior of bregma. The needle was lowered 4 mm in the brain through a burr hole and retracted 1 mm to create a small reservoir where the cells (1×10^4 in a 3 μl volume) were injected.
as §2
Time activity profiles were generated evaluate the hDAT reporter system in vivo. Regions of interest (ROIs) for the hDAT expressing xenografts, cerebellum (chose background region) and striatum were drawn on the SPECT/MR/CT coregistered data. The percentage in injected dose per mm^3 (% ID/mm^3) was calculated by; injected dose (MBq)/counts in the whole body (MBq)/volume of the ROI (mm^3) to determine the peak uptake time and the optimum imaging window. A method based on the striatal binding ratio was utilised to determine specific-to-nondisplaceable binding ratios previously described as indicative of the binding potential at the time of binding equilibrium^6,7. The binding ratios were calculated by determining the mean counts per pixel in the specific region (hDAT expressing xenograft for the hDAT: cerebellum and hDAT: striatum ratios) divided by the mean counts per pixel in the nonspecific region.

The target in experiment [6] is T1, hDAT. Put plainly: PET/CT imaging of hDAT positive cells in mouse brain. To be noted: i.v. It is filed as in vivo. As for the experimental part: Animals were administered with 1.5 mmol/kg of the thyroid blocking agent potassium perchlorate (Sigma Aldrich, USA) intraperitoneally one hour prior to imaging. Animals were imaged with a PET/CT small animal in vivo scanner (Mediso, Hungary). Imaging was performed under isoflurane (1.5-2%) and the body temperature was maintained at 37° C. using a heated animal bed (Minerve, France). Four weeks post tumour inoculation, animals were administered with 5 MBq of ^18F-FP-CIT i.v. and brain scans were acquired 30 min post injection. A high-resolution CT was acquired immediately following […] imaging. Images were reconstructed using HiSPECT software (InviCRO, USA) and image processing analysis was performed (VivoQuant Software; InviCRO, USA).

A short description of experiment [7]: Binding of 123I-FP-CIT by hDAT and hDAT variant proteins from different constructs. Particulars: for binding of [123I]-FP-CIT by hDAT variant: compared to wild-type hDAT, FIG. 7. The method, then: as §1
[8] abbreviates: after 4 h post i.v. injection (constant).

Residue numbers refer to the chain shown, from its start. Names and notes keep the numbering of the source. Values joined by “and” are separate entries in the source; they are usually repeats but may differ in a detail not shown here. Equal values may be shown once. “Also recorded” adds a separate entry of the source.

T1 sequence (Q01959 whole entry): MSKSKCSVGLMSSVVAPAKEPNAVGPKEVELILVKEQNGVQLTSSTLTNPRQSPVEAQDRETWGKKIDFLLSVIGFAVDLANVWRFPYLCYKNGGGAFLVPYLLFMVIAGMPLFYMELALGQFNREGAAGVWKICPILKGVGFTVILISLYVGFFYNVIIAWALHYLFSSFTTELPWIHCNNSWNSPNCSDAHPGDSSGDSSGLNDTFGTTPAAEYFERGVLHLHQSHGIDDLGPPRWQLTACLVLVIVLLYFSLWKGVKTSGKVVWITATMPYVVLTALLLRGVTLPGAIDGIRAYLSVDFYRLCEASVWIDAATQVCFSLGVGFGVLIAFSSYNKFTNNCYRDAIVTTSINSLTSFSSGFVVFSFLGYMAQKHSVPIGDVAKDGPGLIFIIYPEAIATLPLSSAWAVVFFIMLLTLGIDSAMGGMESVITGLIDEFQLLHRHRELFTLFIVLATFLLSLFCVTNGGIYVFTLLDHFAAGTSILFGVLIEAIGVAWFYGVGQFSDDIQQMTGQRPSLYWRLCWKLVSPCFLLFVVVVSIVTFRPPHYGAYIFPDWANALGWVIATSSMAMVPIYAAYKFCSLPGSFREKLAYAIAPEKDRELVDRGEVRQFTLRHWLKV
T2 sequence (Q61327 whole entry): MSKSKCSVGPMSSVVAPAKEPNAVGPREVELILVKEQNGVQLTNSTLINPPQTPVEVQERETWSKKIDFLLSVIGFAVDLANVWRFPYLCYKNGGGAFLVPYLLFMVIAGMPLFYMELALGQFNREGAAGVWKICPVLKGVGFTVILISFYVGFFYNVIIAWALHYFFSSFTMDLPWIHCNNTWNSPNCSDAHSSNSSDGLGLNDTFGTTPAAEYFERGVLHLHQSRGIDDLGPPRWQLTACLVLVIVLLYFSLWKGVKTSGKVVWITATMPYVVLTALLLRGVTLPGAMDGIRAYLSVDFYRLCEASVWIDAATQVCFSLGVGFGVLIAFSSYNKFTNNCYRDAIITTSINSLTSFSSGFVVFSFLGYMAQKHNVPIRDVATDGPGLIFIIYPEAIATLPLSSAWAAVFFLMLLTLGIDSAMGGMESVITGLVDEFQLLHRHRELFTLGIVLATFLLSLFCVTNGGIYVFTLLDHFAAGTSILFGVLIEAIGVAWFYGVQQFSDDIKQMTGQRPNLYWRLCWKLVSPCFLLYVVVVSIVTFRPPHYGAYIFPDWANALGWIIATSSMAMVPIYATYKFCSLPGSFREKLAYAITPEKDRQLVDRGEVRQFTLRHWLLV

For the molecule `COC(=O)[C@H]1[C@@H](c2ccc(I)cc2)C[C@@H]2CC[C@H]1N2CCCF` [[I]-FP-CIT], in experiment [1] (SupT1/SFG.hDAT.I.CD34 cells co-incubated with cold compound, 50 μM), the “% [123I]-FP-CIT binding in the presence of [I]-FP-CIT” value is 1.10±0.22%. Also, in experiment [1] (SupT1/SFG.hDAT.I.CD34 cells, cold compound 50 μM, p<0.001), the “fold reduction of [123I]-FP-CIT binding in the presence of [I]-FP-CIT” value is on record as 32 fold. For the same molecule, in experiment [1] (hDAT positive T-cells, co-incubation with cold compound 50 μM), the “inhibition of [123I]-FP-CIT binding by cold compound (in words)” value is “complete binding inhibition; also recorded: completely abolished”.
For `COC(=O)[C@H]1[C@@H](c2ccc(I)cc2)C[C@@H]2CC[C@H]1N2CCCF` [[^123I]-FP-CIT, [I-^123] N-ω-fluoropropyl-2β-carbomethoxy-3β-(4-iodophenyl) nortropane], the “percentage [123I]-FP-CIT binding” value amounted to 35.10±5.24% in experiment [1] (SupT1/SFG.hDAT.I.CD34 cells, 7.4 kBq, 37° C., 30 min) and 1.41±0.40% in experiment [4]. In experiment [1] (hDAT cells vs non-transduced SupT1 cells), the “fold greater % [123I]-FP-CIT binding in SupT1/SFG.hDAT.I.CD34 compared to control cells” value was 25 fold and 27 fold. The “SPECT signal in control animals” value in experiment [2] is given as “non-detectable”. Further, the “specific to non-specific binding ratio striatum: cerebellum” value in experiment [3] (2 h post i.v. injection (peak)) is 6.56±2.40; in experiment [3] (setting [8]) it was 4.08±0.60. The “specific to non-specific binding ratio hDAT: cerebellum” value in experiment [5] (2 h post i.v. injection (peak)) is 5.73±1.75; in experiment [5] (setting [8]), 4.09±0.38. In experiment [5] (SupT1/SFG.hDAT.I.CD34 xenografts, SPECT), the “optimum imaging time post injection” value was 2 h. For the same molecule, in experiment [5] (co-registered SPECT-MR-CT, 2 h post i.v. injection), the “co-localisation of SPECT signal with MR contrast at xenograft site” value was “good co-localisation; also recorded: good correlation”. Moreover, the “time post radiotracer injection at which hDAT-positive xenografts were visualised by SPECT” value in experiment [5] (dynamic SPECT at 15 min, 2 h, 4 h, 6 h) is “as early as 15 min and up to 6 hr”.
For `COC(=O)[C@H]1[C@@H](c2ccc(I)cc2)C[C@@H]2CC[C@H]1N2CCC[18F]` [^18F-FP-CIT, [^18F] fluoropropyl-carbomethoxy-iodophenyl-nortropane], the “detection of hDAT positive cells by PET/CT” value in experiment [6] is reported as “could also be detected”.
Consider RQR8-hDAT: hDAT tagged with RQR8, for which the “binding of [123I]-FP-CIT by hDAT variant” value in experiment [7] is recorded as “increased levels”.

B1: hDAToptD313N: hDAT including a D313N mutation (protein, UniProt Q01959 1-620, looked up, variant D313N)
Sodium-dependent dopamine …: MSKSKCSVGLMSSVVAPAKEPNAVGPKEVELILVKEQNGVQLTSSTLTNPRQSPVEAQDRETWGKKIDFLLSVIGFAVDLANVWRFPYLCYKNGGGAFLVPYLLFMVIAGMPLFYMELALGQFNREGAAGVWKICPILKGVGFTVILISLYVGFFYNVIIAWALHYLFSSFTTELPWIHCNNSWNSPNCSDAHPGDSSGDSSGLNDTFGTTPAAEYFERGVLHLHQSHGIDDLGPPRWQLTACLVLVIVLLYFSLWKGVKTSGKVVWITATMPYVVLTALLLRGVTLPGAIDGIRAYLSVDFYRLCEASVWINAATQVCFSLGVGFGVLIAFSSYNKFTNNCYRDAIVTTSINSLTSFSSGFVVFSFLGYMAQKHSVPIGDVAKDGPGLIFIIYPEAIATLPLSSAWAVVFFIMLLTLGIDSAMGGMESVITGLIDEFQLLHRHRELFTLFIVLATFLLSLFCVTNGGIYVFTLLDHFAAGTSILFGVLIEAIGVAWFYGVGQFSDDIQQMTGQRPSLYWRLCWKLVSPCFLLFVVVVSIVTFRPPHYGAYIFPDWANALGWVIATSSMAMVPIYAAYKFCSLPGSFREKLAYAIAPEKDRELVDRGEVRQFTLRHWLKV
With B1, the “binding of [123I]-FP-CIT by hDAT variant” value in experiment [7] is on record as “increased levels”.

B2: hDAT: human dopamine transporter expressed from tricistronic construct RQR8.2A.aCD19.2A.hDAT_opt (protein)
chain: B1 Sodium-dependent dopamine … with N313D
modifications: hDAT protein sequence
Take B2: the “binding of [123I]-FP-CIT by hDAT co-expressed with CD19 CAR” value in experiment [7] (hDAT expressed from CD19 CAR-hDAT tricistronic construct, FIG. 8C) is reported as “able to bind”.

B3: dhDATopt: truncated hDAT, probably lacking the 49 N-terminal amino acids compared to wild-type hDAT (protein)
chain: MSKSKCSVGLMSSVVAPAKEPNAVGPKEVELILVKEQNGVQLTSSTLTNPRQSPVEAQDRETWGKKIDFLLSVIGFAVDLANVWRFPYLCYKNGGGAFLVPYLLFMVIAGMPLFYMELALGQFNREGAAGVWKICPILKGVGFTVILISLYVGFFYNVIIAWALHYLFSSFTTELPWIHCNNSWNSPNCSDAHPGDSSGDSSGLNDTFGTTPAAEYFERGVLHLHQSHGIDDLGPPRWQLTACLVLVIVLLYFSLWKGVKTSGKVVWITATMPYVVLTALLLRGVTLPGAIDGIRAYLSVDFYRLCEASVWIDAATQVCFSLGVGFGVLIAFSSYNKFTNNCYRDAIVTTSINSLTSFSSGFVVFSFLGYMAQKHSVPIGDVAKDGPGLIFIIYPEAIATLPLSSAWAVVFFIMLLTLGIDSAMGGMESVITGLIDEFQLLHRHRELFTLFIVLATFLLSLFCVTNGGIYVFTLLDHFAAGTSILFGVLIEAIGVAWFYGVGQFSDDIQQMTGQRPSLYWRLCWKLVSPCFLLFVVVVSIVTFRPPHYGAYIFPDWANALGWVIATSSMAMVPIYAAYKFCSLPGSFREKLAYAIAPEKDRE
modifications: dhDATopt_d protein sequence
notes: truncated hDAT, probably lacking the 49 N-terminal amino acids compared to wild-type hDAT
For B3, the “binding of [123I]-FP-CIT by hDAT variant” value in experiment [7] was “able to bind”.

Source of the values: patent US10286092B2, “Detecting a therapeutic cell” (UCL Business PLC, priority 2015, dated 2019).
